Reference: US8552015B2, “Quinazolinone derivatives and their use as CB agonists” (Novartis AG, priority 2002, dated 2013)
Counter-ions that a name gives are not always drawn.

Columns and labels:
human CB2 receptors = target: T1, human CB2 receptors (Homo sapiens, UniProt P34972); assay: Test II: CB2 receptor binding assay ([3H]CP55940 displacement); conditions: membranes from CHOK1 cells, Ki from IC50 by Cheng-Prussoff
T1 construct: purchased Receptor Biology, Beltsville, Md; host or cells: CHOK1 cells (transfected), membrane preparation
Protocol: (§1) The assay mixture comprises 75 μL of membrane suspension [membranes from CHOK1 cells transfected with human CB2 receptors from Receptor Biology, Beltsville, Md.; 133 μg/mL in assay buffer (50 mM Tris-HCl, 2.5 mM EDTA, 5 mM MgCl2 5 mg/mL BSA, pH7.4), approx, 10 μg/well)], 25 μL WGA-YS beads [Yttrium silicate beads coated with wheat germ agglutinin, Amersham (40 mg/mL, 1 mg/well)), 50 μL test compound in 4% DMSO and 50 μL radioligand {[^3H]CP55940 (180 Ci/mmol), New England Nuclear; final concentration 0.125 nM, in assay buffer}. All components are mixed, shaken at room temperature for 2 hours, then counted on a Topcount. Non-saturable binding is measured in the presence of 10 μM (R)-(+)-[2,3-d]hydro-5-methyl-3-[(4-morpholinyl)methyl]pyrrolo[1,2,3-de]-1,4-benzoxazin-6-yl](1-naphthalenyl)methanone (WIN55,212-2, Tocris).
The IC50 values are calculated in ORIGIN using a logistic fit. Ki values are calculated from the IC50 values using the Cheng-Prussoff equation (Ki=IC50/(1+([L]/Kd)) where [L] is the ligand concentration.

hCB1 receptor [1] = target: T2, hCB1 receptor (Homo sapiens, UniProt P21554); assay: Test I: CB1 receptor binding assay ([3H]CP55940 displacement); design: purchased Receptor Biology, Beltsville, Md; host or cells: HEK293 cells (transfected), membrane preparation; conditions: membranes from HEK293 cells, Ki from IC50 by Cheng-Prussoff
Protocol: More particularly the agents of the invention are active at the human CB1 and CB2 receptor.
as §1, with “HEK293” for “CHOK1”, “CB1” for “CB2”, “mg/well)],” for “mg/well)),”, “(R)-(+)-[2,3-dihydro-5-methyl-3-[(4-morpholinyl)methyl]pyrrolo[1,2,3-de]-1,4-benzoxazin-6-yl](1-naphthalenyl)methanone” for “(R)-(+)-[2,3-d]hydro-5-methyl-3-[(4-morpholinyl)methyl]pyrrolo[1,2,3-de]-1,4-benzoxazin-6-yl](1-naphthalenyl)methanone”
The IC50 values are calculated in ORIGIN using a logistic fit. Ki values are calculated from the IC50 values using the Cheng-Prussoff equation (Ki=IC50/(1+([L]/Kd)) where [L] is the ligand concentration. • Test II: CB2 Receptor Binding Assay

hCB1 receptor [2] = target: T2, hCB1 receptor; assay: Test IV: CB1 functional assay ([35S]GTPγS binding); type: biochemical; design: purchased Receptor Biology Inc RBhCB1 382200; host or cells: HEK293 cells, membrane preparation; conditions: hCB1 receptor membrane (HEK293 cells)
Protocol: G-protein activation is used as a functional measure of receptor-ligand association for G-protein coupled receptors. The basic mechanism behind G-protein activation is the exchange of bound guanosine 5′-diphosphate (GDP) for guanosine 5′-triphosphate (GTP). Using a radioactive, non-hydrolyzable form of GTP, such as guanosine 5′-O-(3-[^35S]thiophosphate ([^35S]GTPγS), G-protein activation is assessed by measuring the accumulation of membrane-bound radioactivity in response to receptor activation.
The plate is sealed with a topseal A cover and vortexed for 2 minutes. The plate is incubated at room temperature for 60 min., centrifuged (Beckman 6JB) at 800 g for 5 minutes and counted on a Topcount for 3 minutes.
Non-specific binding is determined using 10 μM GTPγS, and this is subtracted from all values. Basal binding is assayed in the absence of agonist and in the presence of GDP. The stimulation by agonist is defined as a percentage increase above basal levels, i.e., {[cpm(agonist)−cpm(no agonist)]/cpm(no agonist)}×100
Data are reported as mean ±S.E.M. of one to six experiments performed in triplicate. Non-linear regression analysis of concentration-response data is performed using Origin version 5, (logistics algorithm; Microcal Software Inc. MA, USA) to calculate percentage maximal effect (Emax, %) and EC50 (nM) values. […]

[3] = tested on: neuropathic pain induced by partial ligation of the sciatic nerve; assay: Test III: Neuropathic pain model (partial ligation of the sciatic nerve, mechanical hyperalgesia); type: in vivo, Wistar-rats; conditions: p.o.; dose necessary to produce 50% reversal of hyperalgesia
Description: Activity specifically as analgesic agents may be confirmed in accordance with standard test methods, e.g. as described in the following test. • Test III: Neuropathic Pain Model
Hyperalgesia is examined in the model of neuropathic pain induced by partial ligation of the sciatic nerve as described by Seltzer et al. (1990). Briefly, Wistar-rats (120-140 g) are anaesthetised, the left sciatic nerve exposed at mid-thigh level through a small incision and ⅓ to ½ of the nerve thickness tightly ligated within a 7.0 silk suture. The wound is closed with a single muscle suture and skin clips and dusted with Aureomycin antibiotic powder. The animals are allowed to recover and used 12-15 days following surgery.
Mechanical hyperalgesia is assessed by measuring paw withdrawal thresholds to an increasing pressure stimulus placed onto the dorsal surface of the paw using an analgesymeter (Ugo-Basile, Milan) with a cut-off of 250 g. Withdrawal thresholds are measured on both the ipsilateral (ligated) and contralateral (unligated) paw prior to (predose) and then up to 6 h following drug or vehicle administration. Data are expressed as withdrawal threshold (g) and percentage reversal of hyperalgesia calculated according to the following formula:
[formula] • Potency is expressed as D50 value, i.e. the dose of compound necessary to produce 50% reversal of hyperalgesia.

T2 sequence (P21554 whole entry): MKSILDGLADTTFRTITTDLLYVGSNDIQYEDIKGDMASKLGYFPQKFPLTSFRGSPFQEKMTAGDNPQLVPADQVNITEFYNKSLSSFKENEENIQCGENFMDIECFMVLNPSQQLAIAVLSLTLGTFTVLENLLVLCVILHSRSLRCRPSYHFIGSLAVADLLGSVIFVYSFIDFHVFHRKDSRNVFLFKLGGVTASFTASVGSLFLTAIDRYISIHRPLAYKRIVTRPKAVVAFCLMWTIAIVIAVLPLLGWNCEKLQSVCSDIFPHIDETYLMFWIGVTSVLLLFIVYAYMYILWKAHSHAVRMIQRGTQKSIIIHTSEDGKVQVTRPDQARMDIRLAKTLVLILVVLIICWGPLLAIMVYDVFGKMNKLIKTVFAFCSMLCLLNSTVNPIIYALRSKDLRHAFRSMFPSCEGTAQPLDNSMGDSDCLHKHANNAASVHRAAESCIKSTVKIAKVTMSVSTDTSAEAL
T1 sequence (P34972 whole entry): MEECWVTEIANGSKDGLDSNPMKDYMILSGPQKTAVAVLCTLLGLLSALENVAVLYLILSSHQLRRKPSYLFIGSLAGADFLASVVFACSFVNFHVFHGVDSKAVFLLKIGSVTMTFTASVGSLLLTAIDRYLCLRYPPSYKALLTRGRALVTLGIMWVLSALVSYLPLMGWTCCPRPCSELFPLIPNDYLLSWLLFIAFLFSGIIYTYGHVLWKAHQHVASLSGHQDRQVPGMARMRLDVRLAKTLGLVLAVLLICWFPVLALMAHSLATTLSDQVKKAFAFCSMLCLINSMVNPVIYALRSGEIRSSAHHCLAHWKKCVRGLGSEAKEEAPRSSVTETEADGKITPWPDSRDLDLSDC

SMILES	melting point	Ki (human CB2 receptors)	Ki (hCB1 receptor [1])	EC50 (hCB1 receptor [2])	D50 value in the neuropathic pain model of test III [3]
CCNC(=O)OCc1nc2cc(C)c(C(=O)OCC)c(C)c2c(=O)n1-c1ccccc1S(=O)(=O)NC (as salt: hydrochloride)	126 to 130 °C				
CCOC(=O)c1c(C)cc2nc(COC(=O)NCCO)n(-c3ccccc3S(=O)(=O)NC)c(=O)c2c1C [Example 2, 2-(2-Hydroxy-ethylcarbamoyloxymethyl)-5,7-dimethyl-3-(2-methylsulfamoyl-phenyl)-4-oxo-3,4-dihydro-quinazoline-6-carboxylic acid ethyl ester]		11 ± 3.5 nM	34 ± 3 nM	132 ± 19 nM	0.5 mg/kg
